“Also recorded” adds a separate entry of the source.
How the values were obtained:
BDNF protein levels = experiment: BDNF production in primary neurons; assay type: cell-based, rat; conditions: 24 h
Method: BDNF production in primary neurons was measured as previously described. Primary cultures of hippocampal neuronal cells at a density of 5 × 10^4 cells/well plated on poly-L-lysine coated 96-well plates (Sumitomo Bakelite) were treated with compounds in the presence or absence of AMPA (1 μM) and cultured in a humidified CO2 incubator with 5% CO2 at 37 °C for 24 h. The cells were washed once using phosphate buffered saline and were collected using 60 μL of lysis buffer (20 mM Tris-HCl at pH 8.0, 137 mM NaCl, 10% glycerol, 1% NP-40, 1% protease inhibitor cocktail [Sigma-Aldrich, St. Louis, MO]). Concentrations of BDNF protein were measured using BDNF ELISA Kits (Promega, Fitchburg, WI).
Primary cultures of hippocampal neuronal cells were prepared from fetal Sprague-Dawley rats at 19 days of gestation. Rat embryos were decapitated and their whole brains were isolated. Hippocampi were dissected in ice-cold Hanks' Balanced Salt Solutions (HBSS) under a microscope and then dispersed into cells using a neural cell dispersion kit (Sumitomo Bakelite Co., Ltd., Tokyo, Japan). The dissociated cells were suspended in Neurobasal medium containing B27 supplement (Thermo Fisher Scientific Inc.), 2 mM L-glutamine (Lonza, Basel, Switzerland), 100 U/mL penicillin (Lonza), 100 μg/mL streptomycin (Lonza) and 20 μg/mL gentamicin sulfate (Lonza). […]

cynomolgus monkeys = experiment: Delayed match-to-sample (DMTS) task; assay type: in vivo, cynomolgus monkey (Macaca fascicularis); conditions: 0.06 mg/kg, p.o., 6 h prior to testing
Method: DMTS tasks were performed using 4–6 years old male cynomolgus monkeys (Macaca fascicularis) weighing 4–6 kg as previously described, using a Cambridge Neuropsychological Test Automated Battery (CANTAB) system (CeNes, Cambridge, UK). Monkeys were maintained at 80% of free-feeding body weight throughout the experiment. Details are described in the Supplementary Information.
The experiment was performed using 4-6 years old male cynomolgus monkeys (Macaca fascicularis) weighing 4-6 kg. Monkeys were maintained at 80% of free-feeding body weight throughout the experiment. Four monkeys were trained to perform DMTS task using a Cambridge Neuropsychological Test Automated Battery (CANTAB) system (CeNes, Cambridge, UK) (Weed et al., 1999). Briefly, a trial was initiated by presentation of an image of a sample object on the screen. The monkey had to touch this object on the screen within 30 s. Then, the sample object was diminished from the screen, and a variable delay (0, 4, 8, and 16 s) was ensured. After the delay, the sample object was re-presented together with three other objects. The monkey had to choose the sample object from the four objects and a collect choice was reinforced by the food reward. The ITI was 5 s and one session consisted of 96 trials (24 trials of each delay of 0, 4, 8, and 16 s). […] The correct responses were recorded for all trials during test sessions. […]

GluA1i S743A = biological target: T1, GluA1i S743A (Homo sapiens, UniProt P42261, S743A); experiment: Ca2+ influx assay in CHO cells expressing GluA1i S743A; assay type: cell-based; conditions: at each concentration of glutamate tested (0, 0.3 μM, 1 μM, 3 mM)
T1 construct: expressed in transfected cells; host or cells: CHO cells, transient electroporation
Method: Ca^2+ influx assays using human GluA1/flip and human stargazin co-expressing CHO cells plated at 3 × 10^4 cells/well in 96-well Black Clear plates (Corning Incorporated, Corning, NY) were performed as previously described, with some modifications. For evaluation of the species difference, rat GluA1/flip expressing CHO cells were plated. For mutant channels, the human GluA1i S743A mutant was generated using the In-Fusion HD Cloning Kit (Takara Bio Inc., Kusatsu, Japan) according to the manufacturer's protocol and transiently introduced to CHO cells by Gene Pulser II Electroporation System (Bio-Rad Laboratories, Inc., Hercules, CA). Relative increases of intracellular Ca^2+ levels were monitored for 3 min with a fluorometric imaging plate reader (CellLux, Perkin Elmer Life and Analytical Sciences, Inc., Shelton, CT). […]
Human GluA1/flip and human stargazin co-expressing CHO cells were plated at 3×10^4 cells/well in 96-well Black Clear plate (Corning Incorporated, Corning, NY). […] Relative increases of intracellular Ca^2+ levels by compounds in the presence and absence of 3 mM L-glutamate were monitored for 3 min by fluorometric imaging plate reader (CellLux, Perkin Elmer Life and Analytical Sciences, Inc., Shelton, CT). Activity of compound was defined as integration value of fluorescence value of each detection point. […] EC50 values were calculated by logistic regression analysis.

97 targets = experiment: In vitro selectivity profile (Ricerca); conditions: 10 μM

T1 sequence (P42261 19-906 isoform P42261-2 S743A limits assumed): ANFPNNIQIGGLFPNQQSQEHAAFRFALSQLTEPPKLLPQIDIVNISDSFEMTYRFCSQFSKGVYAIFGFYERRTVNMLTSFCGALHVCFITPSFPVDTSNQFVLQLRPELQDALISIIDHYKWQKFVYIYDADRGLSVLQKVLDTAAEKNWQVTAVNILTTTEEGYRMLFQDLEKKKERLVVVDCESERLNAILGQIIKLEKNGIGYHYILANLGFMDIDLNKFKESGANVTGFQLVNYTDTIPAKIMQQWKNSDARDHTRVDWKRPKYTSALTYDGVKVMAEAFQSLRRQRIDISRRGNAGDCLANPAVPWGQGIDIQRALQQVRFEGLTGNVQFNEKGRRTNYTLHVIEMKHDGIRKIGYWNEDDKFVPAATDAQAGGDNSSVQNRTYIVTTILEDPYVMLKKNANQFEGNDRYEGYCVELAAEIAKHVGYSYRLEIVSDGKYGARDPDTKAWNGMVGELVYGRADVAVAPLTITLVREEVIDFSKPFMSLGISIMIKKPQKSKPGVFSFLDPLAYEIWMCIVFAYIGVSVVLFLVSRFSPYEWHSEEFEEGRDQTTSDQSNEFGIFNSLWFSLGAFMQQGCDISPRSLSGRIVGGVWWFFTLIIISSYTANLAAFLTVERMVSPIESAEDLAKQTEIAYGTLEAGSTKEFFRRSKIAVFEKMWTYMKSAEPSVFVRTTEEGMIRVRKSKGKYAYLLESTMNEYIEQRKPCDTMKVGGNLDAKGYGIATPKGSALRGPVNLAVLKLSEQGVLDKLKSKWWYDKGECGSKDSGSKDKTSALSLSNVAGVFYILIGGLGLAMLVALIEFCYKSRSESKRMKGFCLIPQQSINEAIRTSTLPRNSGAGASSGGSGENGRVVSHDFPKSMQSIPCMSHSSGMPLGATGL
T1 sequence (Q9Y698 whole entry partner): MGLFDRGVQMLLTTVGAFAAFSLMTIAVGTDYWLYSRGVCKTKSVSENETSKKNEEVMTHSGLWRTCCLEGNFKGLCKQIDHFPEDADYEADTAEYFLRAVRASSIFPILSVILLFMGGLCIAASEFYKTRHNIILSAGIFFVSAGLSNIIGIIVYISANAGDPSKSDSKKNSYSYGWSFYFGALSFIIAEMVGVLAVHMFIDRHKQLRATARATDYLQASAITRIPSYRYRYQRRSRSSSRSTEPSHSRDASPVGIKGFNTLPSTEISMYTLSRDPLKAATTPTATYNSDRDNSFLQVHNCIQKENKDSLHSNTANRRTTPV

Compound: CC1=CN2CCS(=O)(=O)N=C2C(c2ccc(OC3CCCCC3)cc2)=N1 [TAK-653, 9-[4-(Cyclohexyloxy)phenyl]-7-methyl-3,4-dihydropyrazino[2,1-c][1,2,4]thiadiazine 2,2-dioxide]
- BDNF protein levels (BDNF protein levels; compound alone at 1 μM): slightly increased
- BDNF protein levels (BDNF protein levels; in the presence of AMPA (1 μM)): robustly increased
- DMTS accuracy at 16-s delay interval (cynomolgus monkeys): significantly ameliorated; also recorded: significantly increased
- Maximum responses in S743A GluA1i versus wild-type GluA1i CHO cells (GluA1i S743A): higher
- Selectivity against 97 targets (97 targets): highly selective
